Experimental data as given in PubChem BioAssay (NCI).
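Five compound concentrations were applied to cells in 96-well plates for 48 hours; endpoints were derived by simple linear interpolation of the resulting dose-response curve. GI50 marks 50% less growth. The concentration for full growth arrest is given as TGI.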

Key:
Assay in all cases: inhibition of tumour cell growth, NCI panel, 48 h
[1] = system: A549 NSCLC
[2] = system: COLO 205 colon
[3] = system: HOP-62 NSCLC
[4] = system: MALME-3M melanoma
[5] = system: SF-268 CNS
[6] = system: SN12C renal
[7] = system: SNB-19 CNS
[8] = system: SNB-75 CNS
[9] = system: UACC-62 melanoma
[10] = system: UO-31 renal

Compound | GI50 [1] [µM] | TGI [1] [µM] | GI50 [2] [µM] | TGI [2] [µM] | GI50 [3] [µM] | TGI [3] [µM] | GI50 [4] [µM] | TGI [4] [µM] | GI50 [5] [µM] | TGI [5] [µM] | GI50 [6] [µM] | TGI [6] [µM] | GI50 [7] [µM] | TGI [7] [µM] | GI50 [8] [µM] | TGI [8] [µM] | GI50 [9] [µM] | TGI [9] [µM] | GI50 [10] [µM] | TGI [10] [µM]
Cn1ncc(-c2ccc3c(=O)[nH]nc(CN)c3c2)c1-c1c(F)cc2ccccc2c1C#N | 5.14 | 18.3 | 4.8 | 18.3 | 6.31 | 20.3 | 4.57 | 17.6 | 4.74 | 20.6 | 7.53 | 20.8 | 9.44 | 24.1 | 4.44 | 19.5 | 10.2 | 23.6 | 7.62 | 20.6
CCc1nc(-n2c(-c3ccccc3)nc3ccccc3c2=O)nc(N)c1-c1ccc(Cl)cc1 | 4.98 | > 100 | 14.2 | > 100 | 14.7 | > 100 | 23.9 | > 100 | 73.2 | > 100 | 15.6 | > 100 | 6.46 | > 100 | 48.2 | > 100 | 6.55 | > 100 | 48.6 | > 100
OC(COc1cccc2ccccc12)CN1CCN(c2ccccc2Cl)CC1 (stereo not given) | 18.2 | 35.4 | 11.9 | 25 | 13.7 | 27.3 | 10.3 | 25.9 | 13.9 | 29.9 | 12.5 | 25.4 | 14.5 | 30.2 | 11.2 | 24.7 | 12.2 | 24.8 | 4.17 | 18.7
O=C1c2ccccc2-c2c1c1ccccc1c(=O)n2-c1ccccc1 | – | > 100 | – | > 100 | – | 14.9 | – | > 100 | – | 52.7 | – | > 100 | – | 20.4 | – | 37.1 | – | > 54.2 | – | 23.5
C1CC[N-]CC1.CC(=N\O)/C(C)=N/O.CC(=N\O)/C(C)=N/O.[CH2-]CCN1CCOCC1.[Co+2] | > 100 | > 100 | > 100 | > 100 | > 100 | > 100 | > 100 | > 100 | > 100 | > 100 | > 100 | > 100 | > 100 | > 100 | > 100 | > 100 | > 100 | > 100 | > 100 | > 100
CC(C)(C)C(=O)OCc1nc2cc3c(cc2c(=O)[nH]1)CCC3=O | > 100 | > 100 | > 100 | > 100 | > 100 | > 100 | > 100 | > 100 | > 100 | > 100 | > 100 | > 100 | > 100 | > 100 | > 100 | > 100 | > 100 | > 100 | > 100 | > 100
COc1ccc2c(c1)CC[C@@H]1[C@@H]2CC[C@]2(C)C=C(/C=C/C(=O)c3ccccc3)C[C@@H]12 | 18.5 | 40.2 | 19.7 | 40.4 | 16.9 | 31.2 | 14 | 30.1 | 18.2 | 36.6 | 18.5 | 33.4 | 16.8 | 31.5 | 12.2 | 25.2 | 13.8 | 27.2 | 15.2 | 30.1
Oc1ccc(Cl)cc1-c1cc(-c2ccc(F)cc2)n[nH]1 | 2.11 | 7.2 | 2.08 | 4.85 | 2.98 | 10.9 | 3.26 | 9.66 | 2.66 | 11.4 | 2.61 | 13.3 | 2.27 | 8.27 | 2.07 | 9.19 | 2.42 | 9.5 | 1.21 | 3.78
Nc1nc(N)c(-c2ccccc2)c(CCC(=O)Nc2ccc(Cl)cc2)n1 | – | > 100 | – | > 100 | – | > 100 | – | > 100 | – | > 100 | – | > 100 | – | > 100 | – | > 100 | – | > 100 | – | > 100
